Assay results as given in patent US9139557B2, “Carboxamide compounds and their use as calpain inhibitors” (Abbott GmbH & Co. KG, priority 2006, dated 2015).

Experiments:
Assay type in all cases: biochemical
cathepsin S = target: T1, cathepsin S (Homo sapiens, UniProt P25774); test: Cathepsin S enzyme inhibition in vitro (kinetic fluorescence assay); details: Ki(cathepsin S)/Ki(calpain) ratio
T1 construct: purchased Calbiochem 219343; host or cells: E. coli
How it was run: (§1)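 Kinetic fluorescence (ex 390/em 460 nm), RT. Calpain-I: 20 nM erythrocyte-derived, 100 μM Suc-Leu-Tyr-AMC, imidazole/CaCl2, pH 7.3. Cathepsins, pH 6.0 MES/EDTA/cysteine: B 0.25 nM liver, 100 μM Z-Phe-Arg-AMC; L 1 nM liver, 2 μM Z-Phe-Arg-AMC; S 0.5 nM recombinant, 20 μM Z-Val-Val-Arg-AMC. Cheng-Prusoff Ki, mean of 2–4 curves.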

cathepsin K = target: T2, cathepsin K (Homo sapiens, UniProt P43235); test: Cathepsin K enzyme inhibition in vitro (kinetic fluorescence assay); details: Ki(cathepsin K)/Ki(calpain) ratio
T2 construct: purchased Calbiochem 342001; host or cells: E. coli
T2 sequence (P43235 115-329): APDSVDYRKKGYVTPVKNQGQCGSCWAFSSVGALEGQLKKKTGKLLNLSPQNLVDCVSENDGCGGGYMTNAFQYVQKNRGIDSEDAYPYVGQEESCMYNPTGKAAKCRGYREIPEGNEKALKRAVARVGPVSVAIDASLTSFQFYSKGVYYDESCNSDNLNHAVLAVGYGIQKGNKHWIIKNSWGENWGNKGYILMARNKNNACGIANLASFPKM

cathepsin B = target: T3, cathepsin B (Homo sapiens, UniProt P07858); test: Cathepsin B enzyme inhibition in vitro (kinetic fluorescence assay); details: Ki(cathepsin B)/Ki(calpain) ratio
T3 construct: cathepsin B—isolated from human liver; purchased Calbiochem 219362; host or cells: human liver (tissue isolate)
How it was run: as §1

cathepsin L = target: T4, cathepsin L (Homo sapiens, UniProt P07711); test: Cathepsin L enzyme inhibition in vitro (kinetic fluorescence assay); details: Ki(cathepsin L)/Ki(calpain) ratio
T4 construct: cathepsin L—isolated from human liver; purchased Calbiochem 219402; host or cells: human liver (tissue isolate)
T4 sequence (P07711 114-333): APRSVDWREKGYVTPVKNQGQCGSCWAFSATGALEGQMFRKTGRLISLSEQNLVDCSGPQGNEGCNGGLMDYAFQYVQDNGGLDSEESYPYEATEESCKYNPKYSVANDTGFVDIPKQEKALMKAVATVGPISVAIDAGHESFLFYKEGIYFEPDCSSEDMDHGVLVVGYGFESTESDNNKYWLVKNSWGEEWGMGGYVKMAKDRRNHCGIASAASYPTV
How it was run: as §1

T1 sequence (P25774 115-331): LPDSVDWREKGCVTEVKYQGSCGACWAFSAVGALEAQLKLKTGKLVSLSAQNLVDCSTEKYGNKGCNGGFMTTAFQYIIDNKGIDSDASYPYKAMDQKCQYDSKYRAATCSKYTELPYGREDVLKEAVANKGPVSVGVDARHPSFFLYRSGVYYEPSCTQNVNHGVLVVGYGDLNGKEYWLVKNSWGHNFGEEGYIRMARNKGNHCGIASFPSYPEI

COc1ccc(Cl)cc1-c1ccn(-c2ncccc2C(=O)NC(Cc2ccccc2)C(=O)C(N)=O)n1 (stereo not drawn) [Example 131, N-[3-Amino-2,3-dioxo-1-(phenylmethyl)propyl]-2-{3-[5-chloro-2-(methyloxy)phenyl]-1H-pyrazol-1-yl}pyridine-3-carboxamide]
Sel cat. S (cathepsin S): ++ (++ means a Ki(cathepsin S)/Ki(calpain) ratio of ≧100) | Sel cat. K (cathepsin K): ++ (++ means a Ki(cathepsin K)/Ki(calpain) ratio of ≧30) | Sel cat. B (cathepsin B): ++ (++ means a Ki(cathepsin B)/Ki(calpain) ratio of ≧30) | Sel cat. L (cathepsin L): ++ (++ means a Ki(cathepsin L)/Ki(calpain) ratio of ≧50)

NC(=O)C(=O)C(Cc1ccc(OC(F)(F)F)cc1)NC(=O)c1cccnc1-n1ccc(-c2ccc(F)cc2)n1 (stereo not drawn) [Example 132, N-[3-Amino-2,3-dioxo-1-({4-[(trifluoromethyl)oxy]phenyl}methyl)propyl]-2-[3-(4-fluorophenyl)-1H-pyrazol-1-yl]pyridine-3-carboxamide]
Sel cat. S (cathepsin S): ++ (++ means a Ki(cathepsin S)/Ki(calpain) ratio of ≧100) | Sel cat. K (cathepsin K): ++ (++ means a Ki(cathepsin K)/Ki(calpain) ratio of ≧30) | Sel cat. B (cathepsin B): + (+ means 10≦Ki(cathepsin B)/Ki(calpain)<30) | Sel cat. L (cathepsin L): ++ (++ means a Ki(cathepsin L)/Ki(calpain) ratio of ≧50)

NC(=O)C(=O)C(Cc1ccc(OC(F)(F)F)cc1)NC(=O)c1cccnc1-n1ccc(-c2ccccc2)n1 (stereo not drawn) [Example 133]
Sel cat. S (cathepsin S): ++ (++ means a Ki(cathepsin S)/Ki(calpain) ratio of ≧100) | Sel cat. K (cathepsin K): ++ (++ means a Ki(cathepsin K)/Ki(calpain) ratio of ≧30) | Sel cat. B (cathepsin B): ++ (++ means a Ki(cathepsin B)/Ki(calpain) ratio of ≧30) | Sel cat. L (cathepsin L): ++ (++ means a Ki(cathepsin L)/Ki(calpain) ratio of ≧50)

NC(=O)C(=O)C(Cc1ccc(OC(F)(F)F)cc1)NC(=O)c1cccnc1-n1ccc(-c2cccc(C(F)(F)F)c2)n1 (stereo not drawn) [Example 134, N-[3-Amino-2,3-dioxo-1-({4-[(trifluoromethyl)oxy]phenyl}methyl)propyl]-2-{3-[3-(trifluoromethyl)phenyl]-1H-pyrazol-1-yl}pyridine-3-carboxamide]
Sel cat. S (cathepsin S): + (+ means 50≦Ki(cathepsin S)/Ki(calpain)<100) | Sel cat. K (cathepsin K): ++ (++ means a Ki(cathepsin K)/Ki(calpain) ratio of ≧30) | Sel cat. B (cathepsin B): ++ (++ means a Ki(cathepsin B)/Ki(calpain) ratio of ≧30) | Sel cat. L (cathepsin L): + (+ means 30≦Ki(cathepsin L)/Ki(calpain)<50)

COc1ccc(CC(NC(=O)c2cccnc2-n2ccc(-c3cccc4ccccc34)n2)C(=O)C(N)=O)cc1 (stereo not drawn) [Example 135, N-(3-Amino-1-{[4-(methyloxy)phenyl]methyl}-2,3-dioxopropyl)-2-(3-naphthalen-1-yl-1H-pyrazol-1-yl)pyridine-3-carboxamide]
Sel cat. S (cathepsin S): ++ (++ means a Ki(cathepsin S)/Ki(calpain) ratio of ≧100) | Sel cat. K (cathepsin K): ++ (++ means a Ki(cathepsin K)/Ki(calpain) ratio of ≧30) | Sel cat. B (cathepsin B): ++ (++ means a Ki(cathepsin B)/Ki(calpain) ratio of ≧30) | Sel cat. L (cathepsin L): ++ (++ means a Ki(cathepsin L)/Ki(calpain) ratio of ≧50)

COc1ccc(CC(NC(=O)c2cccnc2-n2ccc(-c3ccc(F)cc3OC)n2)C(=O)C(N)=O)cc1 (stereo not drawn) [Example 136, N-(3-Amino-1-{[4-(methyloxy)phenyl]methyl}-2,3-dioxopropyl)-2-{3-[4-fluoro-2-(methyloxy)phenyl]-1H-pyrazol-1-yl}pyridine-3-carboxamide]
Sel cat. S (cathepsin S): ++ (++ means a Ki(cathepsin S)/Ki(calpain) ratio of ≧100) | Sel cat. K (cathepsin K): ++ (++ means a Ki(cathepsin K)/Ki(calpain) ratio of ≧30) | Sel cat. B (cathepsin B): ++ (++ means a Ki(cathepsin B)/Ki(calpain) ratio of ≧30) | Sel cat. L (cathepsin L): ++ (++ means a Ki(cathepsin L)/Ki(calpain) ratio of ≧50)

COc1ccc(CC(NC(=O)c2cccnc2-n2ccc(-c3ccc4c(c3)OC(F)(F)O4)n2)C(=O)C(N)=O)cc1 (stereo not drawn) [Example 137, N-(3-Amino-1-{[4-(methyloxy)phenyl]methyl}-2,3-dioxopropyl)-2-[3-(2,2-difluoro-1,3-benzodioxol-5-yl)-1H-pyrazol-1-yl]pyridine-3-carboxamide]
Sel cat. S (cathepsin S): ++ (++ means a Ki(cathepsin S)/Ki(calpain) ratio of ≧100) | Sel cat. K (cathepsin K): + (+ means 10≦Ki(cathepsin K)/Ki(calpain)<30) | Sel cat. B (cathepsin B): + (+ means 10≦Ki(cathepsin B)/Ki(calpain)<30) | Sel cat. L (cathepsin L): ++ (++ means a Ki(cathepsin L)/Ki(calpain) ratio of ≧50)

COc1cc(Cl)ccc1-c1ccn(-c2ncccc2C(=O)NC(Cc2ccccc2)C(=O)C(N)=O)n1 (stereo not drawn) [Example 139, N-[3-Amino-2,3-dioxo-1-(phenylmethyl)propyl]-2-{3-[4-chloro-2-(methyloxy)phenyl]-1H-pyrazol-1-yl}pyridine-3-carboxamide]
Sel cat. S (cathepsin S): ++ (++ means a Ki(cathepsin S)/Ki(calpain) ratio of ≧100) | Sel cat. K (cathepsin K): ++ (++ means a Ki(cathepsin K)/Ki(calpain) ratio of ≧30) | Sel cat. B (cathepsin B): + (+ means 10≦Ki(cathepsin B)/Ki(calpain)<30) | Sel cat. L (cathepsin L): ++ (++ means a Ki(cathepsin L)/Ki(calpain) ratio of ≧50)

NC(=O)C(=O)C(Cc1ccccc1)NC(=O)c1cccnc1-n1cc2c(n1)-c1cc(Cl)ccc1OC2 (stereo not drawn) [Example 140, N-[3-Amino-2,3-dioxo-1-(phenylmethyl)propyl]-2-(8-chlorochromeno[4,3-c]pyrazol-2(4H)-yl)pyridine-3-carboxamide]
Sel cat. S (cathepsin S): ++ (++ means a Ki(cathepsin S)/Ki(calpain) ratio of ≧100) | Sel cat. K (cathepsin K): ++ (++ means a Ki(cathepsin K)/Ki(calpain) ratio of ≧30) | Sel cat. B (cathepsin B): + (+ means 10≦Ki(cathepsin B)/Ki(calpain)<30) | Sel cat. L (cathepsin L): ++ (++ means a Ki(cathepsin L)/Ki(calpain) ratio of ≧50)

COc1ccc2c(c1)OCc1cn(-c3ncccc3C(=O)NC(Cc3ccccc3)C(=O)C(N)=O)nc1-2 (stereo not drawn) [Example 142, N-[3-Amino-2,3-dioxo-1-(phenylmethyl)propyl]-2-[7-(methyloxy)chromeno[4,3-c]pyrazol-2(4H)-yl]pyridine-3-carboxamide]
Sel cat. S (cathepsin S): ++ (++ means a Ki(cathepsin S)/Ki(calpain) ratio of ≧100) | Sel cat. K (cathepsin K): + (+ means 10≦Ki(cathepsin K)/Ki(calpain)<30) | Sel cat. B (cathepsin B): + (+ means 10≦Ki(cathepsin B)/Ki(calpain)<30) | Sel cat. L (cathepsin L): ++ (++ means a Ki(cathepsin L)/Ki(calpain) ratio of ≧50)

Cc1c(Cl)ccc2c1-c1nn(-c3ncccc3C(=O)NC(Cc3ccccc3)C(=O)C(N)=O)cc1CO2 (stereo not drawn) [Example 143, N-[3-Amino-2,3-dioxo-1-(phenylmethyl)propyl]-2-(8-chloro-9-methylchromeno[4,3-c]pyrazol-2(4H)-yl)pyridine-3-carboxamide]
Sel cat. S (cathepsin S): ++ (++ means a Ki(cathepsin S)/Ki(calpain) ratio of ≧100) | Sel cat. K (cathepsin K): ++ (++ means a Ki(cathepsin K)/Ki(calpain) ratio of ≧30) | Sel cat. B (cathepsin B): ++ (++ means a Ki(cathepsin B)/Ki(calpain) ratio of ≧30) | Sel cat. L (cathepsin L): ++ (++ means a Ki(cathepsin L)/Ki(calpain) ratio of ≧50)

NC(=O)C(=O)C(Cc1ccc(F)cc1)NC(=O)c1cccnc1-n1ccc(-c2ccccc2OC(F)(F)F)n1 (stereo not drawn) [Example 152, N-{3-Amino-1-[(4-fluorophenyl)methyl]-2,3-dioxopropyl}-2-(3-{2-[(trifluoromethyl)oxy]phenyl}-1H-pyrazol-1-yl)pyridine-3-carboxamide]
Sel cat. S (cathepsin S): ++ (++ means a Ki(cathepsin S)/Ki(calpain) ratio of ≧100) | Sel cat. K (cathepsin K): ++ (++ means a Ki(cathepsin K)/Ki(calpain) ratio of ≧30) | Sel cat. B (cathepsin B): ++ (++ means a Ki(cathepsin B)/Ki(calpain) ratio of ≧30) | Sel cat. L (cathepsin L): ++ (++ means a Ki(cathepsin L)/Ki(calpain) ratio of ≧50)

COc1ccc(CC(NC(=O)c2cccnc2-n2ccc(-c3cccc(Cl)c3Cl)n2)C(=O)C(N)=O)cc1 (stereo not drawn) [Example 153, N-(3-Amino-1-{[4-(methyloxy)phenyl]methyl}-2,3-dioxopropyl)-2-[3-(2,3-dichlorophenyl)-1H-pyrazol-1-yl]pyridine-3-carboxamide]
Sel cat. S (cathepsin S): ++ (++ means a Ki(cathepsin S)/Ki(calpain) ratio of ≧100) | Sel cat. K (cathepsin K): ++ (++ means a Ki(cathepsin K)/Ki(calpain) ratio of ≧30) | Sel cat. B (cathepsin B): ++ (++ means a Ki(cathepsin B)/Ki(calpain) ratio of ≧30) | Sel cat. L (cathepsin L): ++ (++ means a Ki(cathepsin L)/Ki(calpain) ratio of ≧50)

NC(=O)C(=O)C(Cc1ccccc1)NC(=O)c1cccnc1-n1ccc(-c2cccc(C(F)(F)F)c2Cl)n1 (stereo not drawn) [Example 155, N-[3-Amino-2,3-dioxo-1-(phenylmethyl)propyl]-2-{3-[2-chloro-3-(trifluoromethyl)phenyl]-1H-pyrazol-1-yl}pyridine-3-carboxamide]
Sel cat. S (cathepsin S): ++ (++ means a Ki(cathepsin S)/Ki(calpain) ratio of ≧100) | Sel cat. K (cathepsin K): ++ (++ means a Ki(cathepsin K)/Ki(calpain) ratio of ≧30) | Sel cat. B (cathepsin B): ++ (++ means a Ki(cathepsin B)/Ki(calpain) ratio of ≧30) | Sel cat. L (cathepsin L): ++ (++ means a Ki(cathepsin L)/Ki(calpain) ratio of ≧50)

COc1ccc(CC(NC(=O)c2cccnc2-n2ccc(-c3cccc(F)c3Cl)n2)C(=O)C(N)=O)cc1 (stereo not drawn) [Example 157, N-(3-Amino-1-{[4-(methyloxy)phenyl]methyl}-2,3-dioxopropyl)-2-[3-(2-chloro-3-fluorophenyl)-1H-pyrazol-1-yl]pyridine-3-carboxamide]
Sel cat. S (cathepsin S): ++ (++ means a Ki(cathepsin S)/Ki(calpain) ratio of ≧100) | Sel cat. K (cathepsin K): ++ (++ means a Ki(cathepsin K)/Ki(calpain) ratio of ≧30) | Sel cat. B (cathepsin B): ++ (++ means a Ki(cathepsin B)/Ki(calpain) ratio of ≧30) | Sel cat. L (cathepsin L): ++ (++ means a Ki(cathepsin L)/Ki(calpain) ratio of ≧50)
